Like-named read-outs stand apart in the source and are kept apart here.
Experiments:
[1] = molecular target: T1, human adrenergic-α2C receptor (Homo sapiens, UniProt P18825); assay: Radioligand binding experiment for α2C-adrenoceptor ([3H]raulwolscine, CHO cell membranes)
T1 construct: expressed in transfected cells; host or cells: CHO cells, stably transfected; membranes
T1 sequence (P18825 1-462): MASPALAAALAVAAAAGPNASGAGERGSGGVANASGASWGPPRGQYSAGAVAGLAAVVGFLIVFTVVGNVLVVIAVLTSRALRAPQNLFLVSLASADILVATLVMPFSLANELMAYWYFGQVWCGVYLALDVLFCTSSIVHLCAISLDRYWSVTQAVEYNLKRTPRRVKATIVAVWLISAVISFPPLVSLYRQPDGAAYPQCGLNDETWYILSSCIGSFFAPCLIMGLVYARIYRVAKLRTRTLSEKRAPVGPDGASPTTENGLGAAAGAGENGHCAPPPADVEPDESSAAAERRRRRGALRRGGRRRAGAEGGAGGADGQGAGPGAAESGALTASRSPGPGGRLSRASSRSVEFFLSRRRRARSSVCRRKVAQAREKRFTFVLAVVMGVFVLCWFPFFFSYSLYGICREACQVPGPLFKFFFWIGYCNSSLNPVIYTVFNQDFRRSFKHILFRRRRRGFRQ
Experimental: (§1) The interaction of a compound of Formula (I) with α2C-adrenoceptor receptors was assessed in in vitro radioligand binding experiments. In general, a low concentration of a radioligand with a high binding affinity for a particular receptor or transporter is incubated with a sample of a tissue preparation enriched in a particular receptor or transporter or with a preparation of cells expressing cloned human receptors in a buffered medium. During the incubation, the radioligand binds to the receptor or transporter. When equilibrium of binding is reached, the receptor bound radioactivity is separated from the non-bound radioactivity, and the receptor- or transporter-bound activity is counted. The interaction of the test compounds with the receptor is assessed in competition binding experiments. Various concentrations of the test compound are added to the incubation mixture containing the receptor- or transporter preparation and the radioligand. The test compound in proportion to its binding affinity and its concentration inhibits binding of the radioligand. The radioligand used for hα2A and hα2C receptor binding was [^3H]-raulwolscine.
(§2) CHO cells, stabile transfected with human adrenergic-α2A and α2C receptor cDNA, were cultured in Dulbecco's Modified Eagle's Medium (DMEM)/Nutrient mixture Ham's F12 (ratio 1:1) (Gibco, Gent-Belgium) supplemented with 10% heat inactivated fetal calf serum (Life Technologies, Merelbeke-Belgium) and antibiotics (100 IU/ml penicillin G, 100 μg/ml streptomycin sulphate, 110 μg/ml pyruvic acid and 100 μg/ml L-glutamine). One day before collection, cells were induced with 5 mM sodiumbutyrate. Upon 80-90% of confluence, cells were scraped in phosphate buffered saline without Ca^2+ and Mg^2+ and collected by centrifugation at 1500×g for 10 minutes. The cells were homogenised in Tris-HCl 50 mM using an Ultraturrax homogenizer and centrifuged for 10 minutes at 23,500×g. The pellet was washed once by resuspension and rehomogenization and the final pellet was resuspended in Tris-HCl, divided in 1 ml aliquots and stored at −70° C.
(§3) Membranes were thawed and re-homogenized in incubation buffer (glycylglycine 25 mM, pH 8.0). […] Filters were rinsed extensively with ice-cold rinsing buffer (Tris-HCl 50 mM pH 7.4). Filter-bound radioactivity was determined by scintillation counting in a Topcount (Packard, Meriden, Conn.) and results were expressed as counts per minute (cpm). Non-specific binding was determined in the presence of 1 μM oxymetazoline for the hα2A receptor and 1 μM spiroxatrine for hα2C receptors.
(§4) Data from assays in the presence of compound were calculated as a percentage of total binding measured in the absence of test compound. Inhibition curves, plotting percent of total binding versus the log value of the concentration of the test compound, were automatically generated, and sigmoidal inhibition curves were fitted using non-linear regression. The pIC50 values of test compounds were derived from individual curves.

5HT-Transporter = molecular target: T2, 5HT-Transporter (Homo sapiens, UniProt P31645); assay: Binding experiment for the 5HT-transporter ([3H]paroxetine, human platelet membranes)
T2 construct: Human platelet membranes (Oceanix Biosciences Corporation, Hanover, Md., USA) were thawed; tissue Oceanix Biosciences Corporation; host or cells: human platelet membranes
T2 sequence (P31645 whole entry): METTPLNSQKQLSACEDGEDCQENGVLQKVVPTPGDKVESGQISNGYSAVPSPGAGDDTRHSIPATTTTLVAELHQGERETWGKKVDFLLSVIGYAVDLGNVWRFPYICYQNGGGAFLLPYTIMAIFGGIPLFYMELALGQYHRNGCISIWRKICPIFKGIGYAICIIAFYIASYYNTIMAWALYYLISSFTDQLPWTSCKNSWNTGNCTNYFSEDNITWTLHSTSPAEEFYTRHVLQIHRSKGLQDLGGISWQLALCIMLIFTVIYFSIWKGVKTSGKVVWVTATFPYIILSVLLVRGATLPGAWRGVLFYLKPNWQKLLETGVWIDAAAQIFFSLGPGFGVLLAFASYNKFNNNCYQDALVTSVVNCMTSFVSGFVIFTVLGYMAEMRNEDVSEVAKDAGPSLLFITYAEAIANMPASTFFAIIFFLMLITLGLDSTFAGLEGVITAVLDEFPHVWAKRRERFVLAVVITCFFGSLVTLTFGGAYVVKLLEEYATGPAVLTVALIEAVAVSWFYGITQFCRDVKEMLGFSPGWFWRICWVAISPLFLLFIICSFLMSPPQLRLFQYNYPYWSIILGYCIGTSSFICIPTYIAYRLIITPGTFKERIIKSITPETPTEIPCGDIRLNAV
Experimental: as §1
Human platelet membranes (Oceanix Biosciences Corporation, Hanover, Md., USA) were thawed, diluted in buffer (Tris-HCl 50 mM, 120 mM NaCl and 5 mM KCl) and quickly (max 3 s) homogenised with an Ultraturrax homogenizer. […] Incubation was stopped by rapid filtration of the incubation mixture over GF/B filters, pre-wetted with 0.1% polyethyleneamine, using a Filtermate196 harvester (Packard, Meriden, Conn.). Filters were rinsed extensively with ice-cold buffer and radioactivity on the filters was counted in a Topcount liquid scintillation counter (Packard, Meriden, Conn.). Data were expressed as cpm. Imipramine (at 1 μM final concentration) was used to determine the non-specific binding.
as §4

[2] = molecular target: T3, human adrenergic-α2A receptor (Homo sapiens, UniProt P08913); assay: Radioligand binding experiment for hα2A receptor ([3H]raulwolscine, CHO cell membranes)
T3 construct: expressed in transfected cells; host or cells: CHO cells, stably transfected; membranes
T3 sequence (P08913 1-465): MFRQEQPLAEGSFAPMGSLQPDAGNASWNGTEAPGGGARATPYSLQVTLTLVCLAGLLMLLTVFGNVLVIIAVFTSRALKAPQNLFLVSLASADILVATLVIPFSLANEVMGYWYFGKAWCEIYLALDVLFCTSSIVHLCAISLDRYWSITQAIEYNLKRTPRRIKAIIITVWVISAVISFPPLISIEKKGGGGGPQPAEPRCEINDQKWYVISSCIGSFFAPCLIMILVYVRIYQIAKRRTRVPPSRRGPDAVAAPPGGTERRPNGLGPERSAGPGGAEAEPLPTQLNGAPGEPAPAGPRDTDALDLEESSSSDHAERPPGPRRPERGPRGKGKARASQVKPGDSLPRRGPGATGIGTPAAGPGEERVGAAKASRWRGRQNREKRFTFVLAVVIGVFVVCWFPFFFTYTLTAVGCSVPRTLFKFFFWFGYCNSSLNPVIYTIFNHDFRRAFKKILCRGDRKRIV
Experimental: as §1, §2, §3, §4

[3] = [3H]raulwolscine 1 nM, membranes of CHO cells transfected with human α2C receptor, read-out: h-α2C pIC50 (converted)
[4] = [3H]paroxetine 0.5 nM, read-out: h-5HTT pIC50 (converted)
[5] = [3H]raulwolscine 1 nM, membranes of CHO cells transfected with human α2A receptor, read-out: h-α2A pIC50 (converted)

SMILES: O=c1c(N2CCN(CCc3ccccc3)CC2)nccn1Cc1ccc2ccccc2c1 [Compound 10-10]
- IC50 [1, 3]: 316 nM
- IC50 (5HT-Transporter; [4]): 3160 nM
- IC50 [2, 5]: 501 nM

SMILES: O=c1c(N2CCN(CCc3ccccc3)CC2)nccn1Cc1ccc(Cl)s1 [Compound 10-11]
- IC50 [1, 3]: 200 nM
- IC50 (5HT-Transporter; [4]): > 10000 nM
- IC50 [2, 5]: 794 nM

SMILES: O=c1c(NC2CCN(Cc3ccc(-c4ccccc4)cc3)CC2)nccn1Cc1ccncc1 [Compound 1-10]
- IC50 [1, 3]: 794 nM
- IC50 (5HT-Transporter; [4]): > 10000 nM
- IC50 [2, 5]: 3160 nM

SMILES: CN(CCc1ccccc1)C1CCN(c2nccn(CCC(=O)c3ccccc3)c2=O)CC1 [Compound 8-2]
- IC50 [1, 3]: 63.1 nM
- IC50 (5HT-Transporter; [4]): > 10000 nM
- IC50 [2, 5]: 316 nM

SMILES: O=c1c(N2CCC(c3ccccc3)CC2)nccn1Cc1ccc2ccccc2c1 [Compound 4-1]
- IC50 [1, 3]: 501 nM
- IC50 (5HT-Transporter; [4]): 3980 nM
- IC50 [2, 5]: 501 nM

SMILES: C=CCn1ccnc(N2CCN(CCc3ccccc3)CC2)c1=O [Compound 10-4]
- IC50 [1, 3]: 631 nM
- IC50 (5HT-Transporter; [4]): > 10000 nM
- IC50 [2, 5]: 2510 nM

SMILES: O=c1[nH]ccnc1NC1CCN(CCCc2ccccc2)CC1 [Compound 7-7]
- IC50 [1]: 794 nM
- IC50 (5HT-Transporter; h-5HTT pIC50, [3H]paroxetine 0.5 nM): > 10000 nM
- IC50 [2]: 1580 nM

SMILES: O=c1c(NC2CCN(CCCc3ccccc3)CC2)nccn1Cc1ccc(Br)cc1 [Compound 7-13]
- IC50 [1, 3]: 501 nM
- IC50 (5HT-Transporter; [4]): 1000 nM
- IC50 [2, 5]: 1580 nM

SMILES: CC(C)(C)OC(=O)NCc1ccc(Cn2ccnc(N3CCN(Cc4cccc(-c5ccccc5)c4)CC3)c2=O)cc1 [Compound 3-2]
- IC50 [1, 3]: 251 nM
- IC50 (5HT-Transporter; [4]): 6310 nM
- IC50 [2, 5]: 200 nM

SMILES: O=c1c(NC2CCN(Cc3ccc(-c4ccccc4)cc3)CC2)nccn1CCN1CCCCC1 [Compound 1-3]
- IC50 [1, 3]: 100 nM
- IC50 (5HT-Transporter; [4]): 2510 nM
- IC50 [2, 5]: 501 nM

SMILES: O=c1c(NC2CCN(Cc3ccc(-c4ccccc4)cc3)CC2)nccn1Cc1ccc2ccccc2n1 [Compound 1-11]
- IC50 [1, 3]: 794 nM
- IC50 (5HT-Transporter; [4]): 501 nM
- IC50 [2, 5]: 631 nM

SMILES: O=c1c(NC2CCN(CCc3ccccc3)CC2)nccn1CCN1CCCCC1 [Compound 6-5]
- IC50 [1, 3]: 316 nM
- IC50 (5HT-Transporter; [4]): > 10000 nM
- IC50 [2, 5]: 1580 nM

SMILES: NCc1ccc(Cn2ccnc(NC3CCN(CC(c4ccccc4)c4ccccc4)CC3)c2=O)cc1 [Compound 9-2]
- IC50 [1, 3]: 631 nM
- IC50 (5HT-Transporter; [4]): 2510 nM
- IC50 [2, 5]: 794 nM

SMILES: CC(C)(C)OC(=O)NCCCn1ccnc(NC2CCN(Cc3ccc(OCc4ccccc4)cc3)CC2)c1=O [Compound 11-3]
- IC50 [1, 3]: 631 nM
- IC50 (5HT-Transporter; [4]): > 10000 nM
- IC50 [2, 5]: 794 nM

SMILES: CC(C)(C)OC(=O)NCc1ccc(Cn2ccnc(N3CCC(c4ccccc4)CC3)c2=O)cc1 [Compound 4-3]
- IC50 [1, 3]: 631 nM
- IC50 (5HT-Transporter; [4]): > 10000 nM
- IC50 [2, 5]: 200 nM

SMILES: COc1ccc(-c2nnc(Cn3ccnc(N4CCN(CCc5ccccc5)CC4)c3=O)o2)cc1 [Compound 10-12]
- IC50 [1, 3]: 501 nM
- IC50 (5HT-Transporter; [4]): > 10000 nM
- IC50 [2, 5]: 1260 nM

SMILES: O=c1c(N2CCN(Cc3ccccc3)CC2)nccn1C/C=C/c1ccccc1 [Compound 10-5]
- IC50 [1, 3]: 631 nM
- IC50 (5HT-Transporter; [4]): > 10000 nM
- IC50 [2, 5]: 316 nM
